For this experiment, the target named is Menin-MLL (Homo sapiens (Human), UniProt O00255). Kind of experiment: Determination of binding constants (Ki) to Menin-MLL (HTRF). The conditions noted are these: HTRF, 0.25 nM H-FL-Menin, 3.2 nM FITC-MLL-4-43, 24 hr incubation; for Ki: read-out: Menin-MLL Ki HTRF Assay: Ki.

20 compounds from US11919901B2 (Syndax Pharmaceuticals, Inc., priority 2021, dated 2024) can be followed below.

Structures are written as SMILES. Where only a bound is given, the exact number is not on record here.

Chain of Menin-MLL (O00255 whole entry): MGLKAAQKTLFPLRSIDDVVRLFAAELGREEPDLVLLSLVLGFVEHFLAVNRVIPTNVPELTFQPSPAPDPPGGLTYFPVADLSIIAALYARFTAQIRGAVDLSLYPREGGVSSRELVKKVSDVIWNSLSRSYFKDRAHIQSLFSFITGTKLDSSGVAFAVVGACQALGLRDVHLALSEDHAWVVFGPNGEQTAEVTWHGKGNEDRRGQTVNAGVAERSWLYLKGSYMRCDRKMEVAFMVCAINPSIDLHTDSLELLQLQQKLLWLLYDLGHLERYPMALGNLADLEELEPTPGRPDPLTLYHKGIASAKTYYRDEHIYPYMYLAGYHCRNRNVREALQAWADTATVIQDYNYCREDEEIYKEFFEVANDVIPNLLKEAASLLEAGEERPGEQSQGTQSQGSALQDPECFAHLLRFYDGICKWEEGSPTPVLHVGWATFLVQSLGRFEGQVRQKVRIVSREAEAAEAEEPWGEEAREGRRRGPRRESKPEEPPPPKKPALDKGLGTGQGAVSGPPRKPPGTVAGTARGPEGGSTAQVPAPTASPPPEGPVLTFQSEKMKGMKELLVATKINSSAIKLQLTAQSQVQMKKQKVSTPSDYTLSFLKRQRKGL

As to `CC(C)N(C)C(=O)c1cc(F)ccc1Oc1cncnc1N1CC2(CCN(C[C@@H]3CC[C@@H](NS(=O)(=O)c4ccn(C)n4)CO3)CC2)C1` [Compound 53, Fluoro-N-isopropyl-N-methyl-2-((4-(7-(((2S,5R)-5-((1-methyl-1H-pyrazole)-3-sulfonamido)tetrahydro-2H-pyran-2-yl)methyl)-2,7-diazaspiro[3.5]nonan-2-yl)pyrimidin-5-yl)oxy)benzamide], the Ki was less than 1 nM.

Take `Cc1nc(S(=O)(=O)N[C@@H]2CC[C@@H](CN3CCC4(CC3)CN(c3ncncc3Oc3ccc(F)cc3C(=O)N(C)C(C)C)C4)OC2)cs1` [Compound 54, 5-Fluoro-N-isopropyl-N-methyl-2-((4-(7-(((2S,5R)-5-((2-methylthiazole)-4-sulfonamido)tetrahydro-2H-pyran-2-yl)methyl)-2,7-diazaspiro[3.5]nonan-2-yl)pyrimidin-5-yl)oxy)benzamide]: the Ki is less than 1 nM. Take `CCN(C(=O)c1cc(F)ccc1Oc1cncnc1N1CC2(CCN(C[C@@H]3CC[C@@H](NS(=O)(=O)c4ccc(C)cc4)CO3)CC2)C1)C(C)C` [Compound 55, N-Ethyl-5-fluoro-N-isopropyl-2-((4-(7-(((2S,5R)-5-((4-methylphenyl)sulfonamido)tetrahydro-2H-pyran-2-yl)methyl)-2,7-diazaspiro[3.5]nonan-2-yl)pyrimidin-5-yl)oxy)benzamide]: the EC50 was less than 50 nM and the Ki was less than 1 nM. The matching figures for `CCN(C(=O)c1cc(F)ccc1Oc1cncnc1N1CC2(CCN(C[C@@H]3CC[C@@H](NS(=O)(=O)c4ccccc4C)CO3)CC2)C1)C(C)C` [Compound 56, N-Ethyl-5-fluoro-N-isopropyl-2-((4-(7-(((2S,5R)-5-((2-methylphenyl)sulfonamido)tetrahydro-2H-pyran-2-yl)methyl)-2,7-diazaspiro[3.5]nonan-2-yl)pyrimidin-5-yl)oxy)benzamide]: less than 50 nM and less than 1 nM. The matching figures for `CCN(C(=O)c1cc(F)ccc1Oc1cncnc1N1CC2(CCN(C[C@@H]3CC[C@@H](NS(=O)(=O)c4cccc(Cl)c4)CO3)CC2)C1)C(C)C` [Compound 57, 2-((4-(7-(((2S,5R)-5-((3-Chlorophenyl)sulfonamido)tetrahydro-2H-pyran-2-yl)methyl)-2,7-diazaspiro[3.5]nonan-2-yl)pyrimidin-5-yl)oxy)-N-ethyl-5-fluoro-N-isopropylbenzamide]: less than 50 nM and less than 1 nM. The matching figures for `CCN(C(=O)c1cc(F)ccc1Oc1cncnc1N1CC2(CCN(C[C@@H]3CC[C@@H](NS(=O)(=O)c4cccc(C)c4)CO3)CC2)C1)C(C)C` [Compound 60, N-ethyl-5-fluoro-N-isopropyl-2-((4-(7-(((2S,5R)-5-((3-methylphenyl)sulfonamido)tetrahydro-2H-pyran-2-yl)methyl)-2,7-diazaspiro[3.5]nonan-2-yl)pyrimidin-5-yl)oxy)benzamide]: less than 50 nM and less than 1 nM. Take `CCN(C(=O)c1cc(F)ccc1Oc1cncnc1N1CC2(CCN(C[C@@H]3CC[C@@H](NS(=O)(=O)c4ccc(Cl)cc4)CO3)CC2)C1)C(C)C` [Compound 61, 2-((4-(7-(((2S,5R)-5-((4-Chlorophenyl)sulfonamido)tetrahydro-2H-pyran-2-yl)methyl)-2,7-diazaspiro[3.5]nonan-2-yl)pyrimidin-5-yl)oxy)-N-ethyl-5-fluoro-N-isopropylbenzamide]: the EC50 is less than 50 nM and the Ki was less than 1 nM.

Regarding `CCN(C(=O)c1cc(F)ccc1Oc1cncnc1N1CC2(CCN(C[C@@H]3CC[C@@H](NS(=O)(=O)C4CCOCC4)CO3)CC2)C1)C(C)C` [Compound 67, N-Ethyl-5-fluoro-N-isopropyl-2-((4-(7-(((2S,5R)-5-((tetrahydro-2H-pyran)-4-sulfonamido)tetrahydro-2H-pyran-2-yl)methyl)-2,7-diazaspiro[3.5]nonan-2-yl)pyrimidin-5-yl)oxy)benzamide], the EC50 was less than 50 nM and the Ki was less than 1 nM. For `CCN(C(=O)c1cc(F)ccc1Oc1cncnc1N1CC2(CCN(C[C@@H]3CC[C@@H](NS(=O)(=O)N4CC(F)(F)C4)CO3)CC2)C1)C(C)C` [Compound 70, 2-((4-(7-(((2S,5R)-5-((3,3-Difluoroazetidine)-1-sulfonamido)tetrahydro-2H-pyran-2-yl)methyl)-2,7-diazaspiro[3.5]nonan-2-yl)pyrimidin-5-yl)oxy)-N-ethyl-5-fluoro-N-isopropylbenzamide], in that order: less than 50 nM and less than 1 nM. In the case of `CCN(C(=O)c1cc(F)ccc1Oc1cncnc1N1CC2(CCN(C[C@@H]3CC[C@@H](NS(N)(=O)=O)CO3)CC2)C1)C(C)C` [Compound 73, N-Ethyl-5-fluoro-N-isopropyl-2-((4-(7-(((2S,5R)-5-(sulfamoylamino)tetrahydro-2H-pyran-2-yl)methyl)-2,7-diazaspiro[3.5]nonan-2-yl)pyrimidin-5-yl)oxy)benzamide], the Ki is less than 1 nM. Same read-out and setting: the figure for `CCN(C(=O)c1cc(F)ccc1Oc1cncnc1N1CC2(CCN(C[C@@H]3CC[C@@H](NS(=O)(=O)c4ccc(=O)n(C)c4)CO3)CC2)C1)C(C)C` [Compound 74, N-Ethyl-5-fluoro-N-isopropyl-2-((4-(7-(((2S,5R)-5-((1-methyl-6-oxo-1,6-dihydropyridine)-3-sulfonamido)tetrahydro-2H-pyran-2-yl)methyl)-2,7-diazaspiro[3.5]nonan-2-yl)pyrimidin-5-yl)oxy)benzamide] is less than 1 nM. For `CC(C)N(C(=O)c1cc(F)ccc1Oc1cncnc1N1CC2(CCN(C[C@@H]3CC[C@@H](NS(=O)(=O)N(C)C)CO3)CC2)C1)C(C)C` [Compound 77, 2-((4-(7-(((2S,5R)-5-((N,N-Dimethylsulfamoyl)amino)tetrahydro-2H-pyran-2-yl)methyl)-2,7-diazaspiro[3.5]nonan-2-yl)pyrimidin-5-yl)oxy)-5-fluoro-N,N-diisopropylbenzamide], the EC50 was less than 50 nM and the Ki was less than 1 nM.

As for `CC(C)N(C(=O)c1cc(F)ccc1Oc1cncnc1N1CC2(CCN(C[C@@H]3CC[C@@H](NS(=O)(=O)C4CCOCC4)CO3)CC2)C1)C(C)C` [Compound 79], the EC50 is less than 50 nM and the Ki is less than 1 nM. As for `CC(C)N(C(=O)c1cc(F)ccc1Oc1cncnc1N1CC2(CCN(C[C@@H]3CC[C@@H](NS(=O)(=O)c4ccc(=O)n(C)c4)CO3)CC2)C1)C(C)C` [Compound 92, 5-Fluoro-N,N-diisopropyl-2-((4-(7-(((2S,5R)-5-((1-methyl-6-oxo-1,6-dihydropyridine)-3-sulfonamido)tetrahydro-2H-pyran-2-yl)methyl)-2,7-diazaspiro[3.5]nonan-2-yl)pyrimidin-5-yl)oxy)benzamide], the Ki was less than 1 nM.

For the compound `CC(C)N(CC(F)F)C(=O)c1cc(F)ccc1Oc1cncnc1N1CC2(CCN(C[C@@H]3CC[C@@H](NS(C)(=O)=O)CO3)CC2)C1` [Compound 96, N-(2,2-Difluoroethyl)-5-fluoro-N-isopropyl-2-((4-(7-(((2S,5R)-5-(methylsulfonamido)tetrahydro-2H-pyran-2-yl)methyl)-2,7-diazaspiro[3.5]nonan-2-yl)pyrimidin-5-yl)oxy)benzamide], the EC50 was less than 50 nM and the Ki is less than 1 nM. For `CC(C)N(CC(F)F)C(=O)c1cc(F)ccc1Oc1cncnc1N1CC2(CCN(C[C@@H]3CC[C@@H](NS(=O)(=O)C4CCOCC4)CO3)CC2)C1` [Compound 98, N-(2,2-Difluoroethyl)-5-fluoro-N-isopropyl-2-((4-(7-(((2S,5R)-5-((tetrahydro-2H-pyran)-4-sulfonamido)tetrahydro-2H-pyran-2-yl)methyl)-2,7-diazaspiro[3.5]nonan-2-yl)pyrimidin-5-yl)oxy)benzamide], in that order: less than 50 nM and less than 1 nM. Consider `CCn1cc(S(=O)(=O)N[C@@H]2CC[C@@H](CN3CCC4(CC3)CN(c3ncncc3Oc3ccc(F)cc3C(=O)N(CC(F)F)C(C)C)C4)OC2)cn1` [Compound 106, N-(2,2-Difluoroethyl)-2-((4-(7-(((2S,5R)-5-((1-ethyl-1H-pyrazole)-4-sulfonamido)tetrahydro-2H-pyran-2-yl)methyl)-2,7-diazaspiro[3.5]nonan-2-yl)pyrimidin-5-yl)oxy)-5-fluoro-N-isopropylbenzamide], for which the Ki is less than 1 nM. On to `CC(C)N(CC(F)(F)F)C(=O)c1cc(F)ccc1Oc1cncnc1N1CC2(CCN(C[C@@H]3CC[C@@H](NS(=O)(=O)N4CCOCC4)CO3)CC2)C1` [Compound 108, 5-Fluoro-N-isopropyl-2-((4-(7-(((2S,5R)-5-(morpholine-4-sulfonamido)tetrahydro-2H-pyran-2-yl)methyl)-2,7-diazaspiro[3.5]nonan-2-yl)pyrimidin-5-yl)oxy)-N-(2,2,2-trifluoroethyl)benzamide], for which the EC50 is less than 50 nM and the Ki was less than 1 nM. With `CC(C)N(CC(F)(F)F)C(=O)c1cc(F)ccc1Oc1cncnc1N1CC2(CCN(C[C@@H]3CC[C@@H](NS(=O)(=O)C(C)C)CO3)CC2)C1` [Compound 109, 5-Fluoro-N-isopropyl-2-((4-(7-(((2S,5R)-5-((1-methylethyl)sulfonamido)tetrahydro-2H-pyran-2-yl)methyl)-2,7-diazaspiro[3.5]nonan-2-yl)pyrimidin-5-yl)oxy)-N-(2,2,2-trifluoroethyl)benzamide], the EC50 is less than 50 nM and the Ki is less than 1 nM. The matching figures for `CC(C)N(C(=O)c1cc(F)ccc1Oc1cncnc1N1CC2(CCN(C[C@@H]3CC[C@@H](NS(=O)(=O)C(C)C)CO3)CC2)C1)C1CC(F)(F)C1` [Compound 110, N-(3,3-Difluorocyclobutyl)-5-fluoro-N-isopropyl-2-((4-(7-(((2S,5R)-5-((1-methylethyl)sulfonamido)tetrahydro-2H-pyran-2-yl)methyl)-2,7-diazaspiro[3.5]nonan-2-yl)pyrimidin-5-yl)oxy)benzamide]: less than 50 nM and less than 1 nM.

What is called Ki is a dissociation constant, usually derived from enzyme kinetics or from competition with a known ligand. In general, EC50 refers to the concentration that produces a half-maximal response. Low readings indicate an effect from little substance, high ones a need for much substance.
